Laboratory results reported in patent US20130252930A1 (BIOMARIN PHARMACEUTICAL INC., priority 2010, published 2013).
Read-outs that look alike come from different tables or passages of the source.

Key:
[1] = molecular target: T1, CYP17 (human testicular microsome) (Homo sapiens, UniProt P05093); test: CYP17 enzymatic assay (% inhibition at 10 nM), version 1 (Biological Example 5); type: biochemical; settings: 10 nM compound, DHEA by ELISA, read-out: Biological Example No. 5: CYP17 percent inhibition at 10 nM (version 1)
T1 construct: using microsomal fraction from human testis (Celsis Cat #S00110) as the enzyme source; tissue Celsis S00110; host or cells: human testis microsomal fraction
T1 sequence (P05093 1-508): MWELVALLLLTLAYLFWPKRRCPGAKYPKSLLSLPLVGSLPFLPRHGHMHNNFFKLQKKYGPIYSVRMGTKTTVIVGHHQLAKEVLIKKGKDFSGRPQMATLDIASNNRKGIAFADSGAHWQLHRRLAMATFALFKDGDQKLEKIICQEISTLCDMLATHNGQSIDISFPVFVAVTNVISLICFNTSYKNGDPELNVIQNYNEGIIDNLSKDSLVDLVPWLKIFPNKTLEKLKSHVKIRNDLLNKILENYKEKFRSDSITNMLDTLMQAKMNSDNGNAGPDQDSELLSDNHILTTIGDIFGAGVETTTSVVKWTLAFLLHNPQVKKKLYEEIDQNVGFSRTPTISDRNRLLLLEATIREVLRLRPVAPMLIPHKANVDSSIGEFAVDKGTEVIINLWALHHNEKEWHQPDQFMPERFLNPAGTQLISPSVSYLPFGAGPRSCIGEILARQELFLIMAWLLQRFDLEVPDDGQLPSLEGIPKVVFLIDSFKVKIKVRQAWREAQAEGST

[2] = test system: rat Cyp11B enzyme (rat adrenal mitochondria); test: CYP11B enzymatic assay (% inhibition at 100 nM) (Biological Example 9); type: biochemical; settings: for Biological Example No. 9: CYP11B percent inhibition at 100 nM: 100 nM compound, cortisol by ELISA
In short: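 Sprague Dawley rat adrenal mitochondria were incubated with compound at 100 nM, 0.5 mM NADPH and 0.1 μM 11-deoxycortisol (pH 7.4 Tris buffer) for 60 min at 37 °C. Cortisol was measured by ELISA and corrected by subtracting the no-NADPH background. % inhibition is relative to the no-compound reaction.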

CYP17 (H295R cells) = molecular target: T2, CYP17 (H295R cells) (Homo sapiens, UniProt P05093); test: CYP17 cellular assay (IC50), testosterone in H295R cells (Biological Example 7); type: cell-based; settings: H295R cells
T2 construct: endogenous in cells; host or cells: H295R cells
T2 sequence (P05093 1-508): T1 sequence (P05093 1-508)
In short: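 H295R cells cultured 24 h, then exposed to compound at 100, 10, 1, 0.1 nM final in serum-free DMEM/F-12 with ITS+ and 0.1% methanol for 24 h at 37 °C. Medium testosterone measured by ELISA and plotted against compound concentration.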

[3] = Human liver microsome stability assay (Biological Example 8b); settings: liver microsomes, pH 7.4
Method: The reaction was started with addition of excess NADPH (5 mg/mL, 15 μL in 0.1 M potassium phosphate buffer, 1.0 mM EDTA, pH 7.4), the total volume is 45 μL (compound final concentration was 1 μM). […] 50 μL of the supernatant was transferred from each well into a 96-well sample plate containing 50 μL of ultra-pure water (Millipore) for LC-MS/MS analysis.

[4] = Rat liver microsome stability assay (Biological Example 8a); settings: liver microsomes, pH 7.4
[5] = molecular target: T1, CYP17 (human testicular microsome); test: CYP17 enzymatic assay (% inhibition at 1 nM) (Biological Example 12); type: biochemical; settings: compound at 1 nM, read-out: CYP17 enzymatic assay % inhibition at 1 nM (Biological Example No. 12)
[6] = testosterone by ELISA, 24 hours, read-out: Biological Example No. 7: CYP17 cellular assay IC50

Structure (SMILES) | inhibition at 0.01 µM [1] | Biological Example No. 9: CYP11B percent inhibition at 100 nM [2] | IC50 (CYP17 (H295R cells); [6]) | half-life at 1 μM [3] | half-life at 1 μM [4] | CYP11B enzymatic assay % inhibition at 100 nM (Biological Example No. 9) ([2]; compound at 100 nM) | IC50 (CYP17 (H295R cells); testosterone, read-out: CYP17 cellular assay IC50 (Biological Example No. 7)) | inhibition at 0.001 µM [5]
C[C@]12CC[C@H]3[C@@H](CC=C4C[C@@H](O)CC[C@@]43C)C1=CC=C2c1cccnc1 [Compound 79, (3S,10R,13S)-10,13-dimethyl-17-(pyridin-3-yl)-2,3,4,7,8,9,10,11,12,13-decahydro-1H-cyclopenta[a]phenanthren-3-ol] | 50 to 80% | T (T means the compound had a percent inhibition of less than 32% when tested at 100 nM) | < 15 nM | 1 to 50 min | 10 to 60 min | – | – | –
C[C@]12CC(O)C[C@@H]1CC[C@@H]1[C@@H]2CC[C@]2(C)C(n3ccnc3)=CC[C@@H]12 (stereo partly drawn) [Compound 109, (3aS,5aS)-6-(1H-imidazol-1-yl)-3a,5a-dimethyl-1,2,3,3a,3b,4,5,5a,8,8a,8b,9,10,10a-tetradecahydrodicyclopenta[a,f]naphthalen-2-ol] | > 80% | U (U means the compound had a percent inhibition of greater than or equal to 32%) | < 15 nM | – | 10 to 60 min | – | – | –
CC(=O)NC1CC[C@@]2(C)C(=CCC3C2CC[C@]2(C)C(n4ccnc4)=CCC32)C1 (stereo partly drawn) [Compound 237, N-((10R,13S)-17-(1H-imidazol-1-yl)-10,13-dimethyl-2,3,4,7,8,9,10,11,12,13,14,15-dodecahydro-1H-cyclopenta[a]phenanthren-3-yl)acetamide] | – | – | – | > 50 min | – | U (U means the compound had a percent inhibition of greater than or equal to 32%) | < 15 nM | > 50%
